Where a name gives a salt, the structure may show the parent alone.
Experiment: In vivo delivery of lipid-nucleic acid mixture (PGY-sRNA-26) by gavage, relative intake in blood and tissues by RT-qPCR
Parameters: species or system C57BL/6 male mice
Details: for oral delivery of sRNA single-chain nucleic acid into the blood, and lung, kidney, spleen, heart, and intestinal tissue of mice / oral delivery of sRNA single-chain nucleic acid into the blood, and lung, kidney, spleen, and heart tissues of mice: 100 μg lipid:1 nmol PGY-sRNA-26 per mouse, 12 hrs after gavage, vs free intake group
Protocol: The concentration of a lipid solution in chloroform was 10 mg/ml (stock solution), and grouping was performed according to the lipid compound number.
1 nmol of small RNA (as shown in Table 2) was dissolved in 400 μl of DEPC-treated water in a glass tube, and 10 μl of a corresponding lipid stock solution was added, to give a system containing 100 μg of lipid. The system was well mixed, heated for 15 min in a water bath at 90° C., and then naturally cooled, to obtain a lipid-nucleic acid mixture of the lipid and small RNA.
The C57BL/6 male mice used in the experiment were purchased from Beijing Vital River Laboratory Animal Technology Co., Ltd., about 6 weeks old, and weighed 20-24 g. They were kept in an SPF animal room of the Animal Center of the Institute of Basic Medical Sciences, Chinese Academy of Medical Sciences. The mice were fasted for 12 hrs before gavage.
The lipid-nucleic acid mixture was prepared following the method as described in Example 2. The prepared lipid-nucleic acid mixture was orally administered at a dose of 100 μg lipid:1 nmol single-stranded small RNA PGY-sRNA-26 per mouse.
1) Blank group: Mice (n=4) were given 500 μl of normal saline by gavage, and this group served as a blank control group;
2) Free intake group: Mice (n=4) were given sRNA solution (1 nmol/animal, 500 μl) by direct gavage, and this group served as a negative control group;
3) Lipid treatment group: Mice (n=4) were given 500 μl of the lipid-nucleic acid mixture prepared in step 2 by gavage.
12 hrs after gavage in each group of mice, 500 μl of blood was taken from the eyeball, and 1.5 ml of Trizol Reagent LS (purchased from Invitrogen) was added and mixed well for lysis. The tissue sample was added with 3 ml of Trizol Reagent LS. and homogenized for full lysis, wherein the tissue sample included lung/kidney/spleen/heart/gut. 1 ml of blood or tissue lysate was taken and RNA was extracted according to the following steps.
The blood or tissue lysate was centrifuged at 4° C., and 12,000 rpm for 5 min, the pellet was discarded, and Trizol was transferred to a new centrifuge tube.
Chloroform was added in an amount of 200 μL chloroform/mL Trizol, shaken fully until uniform, and allowed to stand at room temperature for 5 min.
The sample was centrifuged at 4° C., and 12,000 rpm, for 15 min.
The upper aqueous phase was pipetted to another centrifuge tube, and isopropanol was added in an amount of 0.4 mL isopropanol/mL Trizol, mixed well, and allowed to stand at a low temperature for 10-20 min.
The sample was centrifuged at 4° C., and 12,000 rpm, for 15 min, the supernatant was discarded, and the RNA pellet was at the bottom of the tube.
1 mL of 75% ethanol was added, and the centrifuge tube was shaken gently, to suspend the pellet.
The sample was centrifuged at 4° C., and 12,000 rpm, for 10 min, the supernatant was discarded, 1 mL of 75% ethanol was added, and the centrifuge tube was shaken gently, to suspend the pellet.
The sample was centrifuged at 4° C., and 12,000 rpm, for 10 min, the supernatant was discarded, and the sample was air dried at room temperature. The RNA sample was dissolved in 50-100 μL of RNase-free H2O, and the RNA concentration was quantified by determining the OD value.
The sRNA was reversely transcribed into cDNA using a reverse transcription kit (High-Capacity cDNA Reverse Transcription Kits, Applied Biosystems, cat. no. 4368813), following the stem-loop method (see, for example Real-time quantification of microRNAs by stem-loop RT-PCR, Nucleic Acids Res. 2005 Nov. 27; 33(20):e179, incorporated herein by reference). System for reverse transcription: template RNA (200 ng/μL) 10 μL, 10×RT buffer 2.0 μL, 25×dNTP Mix (100 mM) 0.8 μL, U6 RT stem-loop primer 2.0 μL, PGY-sRNA-26 RT stem-loop primer 2.0 μL, MultiScribe™ reverse transcriptase 1.0 μL, RNAase inhibitor 1.0 μL, and nuclease-free water H2O 1.2 μL. […]

[1] = significant difference compared to the control, 100 μg lipid:1 nmol PGY-sRNA-26, 12 hrs

CCCCCCCC/C=C\CCCCCCCC(=O)OC[C@H](COP(=O)([O-])OCC[N+](C)(C)C)OC(=O)CCCCCCC/C=C\CCCCCCCC [Lipid 117, 1,2-bis-(9Z-octadecenoyl)-sn-glycero-3-phosphocholine]
oral delivery of sRNA single-chain nucleic acid into the blood, and lung, kidney, spleen, heart, and intestinal tissue of mice: can effectively orally deliver

N-palmitoyl-D-erythro-sphingosylphosphocholine [Lipid 105]
oral delivery of sRNA single-chain nucleic acid into the blood, and lung, kidney, spleen, heart, and intestinal tissue of mice: can effectively orally deliver | oral delivery of sRNA single-stranded nucleic acid into the blood of mice [1]: can significantly efficiently orally deliver

CCCCCCCCCCCCCCCCCC(=O)OCC(O)COC(=O)CCCCCCCCCCCCCCC (centres unmarked) [Lipid 111, 1-palmitin-3-stearin]
oral delivery of sRNA single-chain nucleic acid into the blood, and lung, kidney, spleen, heart, and intestinal tissue of mice: can effectively orally deliver

CCCCCCCC/C=C\CCCCCCCC(=O)OC[C@H](COP(=O)([O-])OCC(O)CO)OC(=O)CCCCCCC/C=C\CCCCCCCC.[Na+] (some centres unmarked) [Lipid 81, 1,2-dioleoyl-sn-glycero-3-phosphatidylglycerol sodium salt]
oral delivery of sRNA single-chain nucleic acid into the blood, and lung, kidney, spleen, and heart tissues of mice: can effectively orally deliver | oral delivery of sRNA single-stranded nucleic acid into the spleen tissue of mice [1]: can significantly efficiently orally deliver

CCCCCCCCCCCCCCCCOC[C@H](COP(=O)([O-])OCC[N+](C)(C)C)OC(C)=O [Lipid 85, β-acetyl-γ-O-alkyl-L-α-phosphatidylcholine]
oral delivery of sRNA single-chain nucleic acid into the blood, and lung, kidney, spleen, heart, and intestinal tissue of mice: can effectively orally deliver

N-palmitoleoyl-D-erythro-sphingosylphosphocholine [Lipid 103]
oral delivery of sRNA single-chain nucleic acid into the blood, and lung, kidney, spleen, heart, and intestinal tissue of mice: can effectively orally deliver | oral delivery of sRNA single-stranded nucleic acid into the lung tissue of mice [1]: can significantly efficiently orally deliver

CCCCCCCCCCCCCCCC(=O)OCC(COP(=O)([O-])OCC[N+](C)(C)C)OC(=O)CCCCCCCCCCCCCCC (centres unmarked) [Lipid 119, 1,2-dihexadecanoyl-sn-glycero-3-phosphocholine]
oral delivery of sRNA single-chain nucleic acid into the blood, and lung, kidney, spleen, heart, and intestinal tissue of mice: can effectively orally deliver

CCCCC/C=C\C/C=C\CCCCCCCC(=O)OC[C@H](COP(=O)([O-])OCC[N+](C)(C)C)OC(=O)CCCCCCC/C=C\C/C=C\CCCCC [Lipid 107, 1,2-dilinoleoyl-sn-glycero-3-phosphocholine]
oral delivery of sRNA single-chain nucleic acid into the blood, and lung, kidney, spleen, heart, and intestinal tissue of mice: can effectively orally deliver

CCCCCCCC/C=C\CCCCCCCC(=O)O[C@H](COC(=O)CCCCCCCCCCCCCCCCC)COP(=O)([O-])OCC[N+](C)(C)C [Lipid 87, 1-stearoyl-2-oleoyl-sn-glycero-3-phosphocholine]
oral delivery of sRNA single-chain nucleic acid into the blood, and lung, kidney, spleen, heart, and intestinal tissue of mice: can effectively orally deliver

1,3-palmitin-2-myristin [Lipid 76]
oral delivery of sRNA single-chain nucleic acid into the blood, and lung, kidney, spleen, and heart tissues of mice: can effectively orally deliver | number of organs into which nucleic acid is significantly delivered (among the 6 organs in the experiments): two organs | oral delivery of sRNA single-stranded nucleic acid into the lung tissue of mice [1]: can significantly efficiently orally deliver | oral delivery of sRNA single-stranded nucleic acid into the spleen tissue of mice [1]: can significantly efficiently orally deliver

CCCCCCCC/C=C\CCCCCCCC(=O)OCC(O)COP(=O)(O)OCCN (centres unmarked) [Lipid 116, 1-(9Z-octadecenoyl)-sn-glycero-3-phosphoethanolamine]
oral delivery of sRNA single-chain nucleic acid into the blood, and lung, kidney, spleen, heart, and intestinal tissue of mice: can effectively orally deliver

CCCCCCCCC=CCCCCCCCC(=O)OCC(COC(=O)CCCCCCCCCCCCCCCCCCC)OC(=O)CCCCCCCC=CCCCCCCCC (centres unmarked) [Lipid 78, 1,2-olein-3-arachidin]
oral delivery of sRNA single-chain nucleic acid into the blood, and lung, kidney, spleen, and heart tissues of mice: can effectively orally deliver

1-palmitoyl-2-oleoyl-sn-glycero-3-phospho-(1′-rac-glycerol) (sodium salt) [Lipid 88]
oral delivery of sRNA single-chain nucleic acid into the blood, and lung, kidney, spleen, heart, and intestinal tissue of mice: can effectively orally deliver | oral delivery of sRNA single-stranded nucleic acid into the kidney tissue of mice [1]: can significantly efficiently orally deliver

1,2-stearin-3-olein [Lipid 77]
oral delivery of sRNA single-chain nucleic acid into the blood, and lung, kidney, spleen, and heart tissues of mice: can effectively orally deliver | oral delivery of sRNA single-stranded nucleic acid into the spleen tissue of mice [1]: can significantly efficiently orally deliver

CCCCCCCCCCCCCCCC(=O)OC[C@H](COP(=O)(O)O[C@H]1C(O)C(O)C(O)[C@@H](O)C1O)OC(=O)CCCCCCCCCCCCCCC (some centres unmarked) [Lipid 109, 1,2-dipalmitoyl-sn-glycero-3-phospho-(l′-myo-inositol) (ammonium salt)]
oral delivery of sRNA single-chain nucleic acid into the blood, and lung, kidney, spleen, heart, and intestinal tissue of mice: can effectively orally deliver

CCCCCCCCCCCCCCCCCCCC(=O)OCC(COC(=O)CCCCCCCCCCCCCCCCCCC)OC(=O)CCCCCCCCCCCCCCCCCCC [Lipid 112, Trieicosanoin]
oral delivery of sRNA single-chain nucleic acid into the blood, and lung, kidney, spleen, heart, and intestinal tissue of mice: can effectively orally deliver

CCCCCCCCC=CCCCCCCCC(=O)OCC(COC(=O)CCCCCCCCCCCCCCCCCCCCC)OC(=O)CCCCCCCC=CCCCCCCCC (centres unmarked) [Lipid 79, 1,2-olein-3-behenin]
oral delivery of sRNA single-chain nucleic acid into the blood, and lung, kidney, spleen, and heart tissues of mice: can effectively orally deliver | oral delivery of sRNA single-stranded nucleic acid into the spleen tissue of mice [1]: can significantly efficiently orally deliver

CCCCCCCCCCCCCCCCOC[C@H](COP(=O)([O-])OCC[N+](C)(C)C)OC(C)=O [Lipid 84, β-acetyl-γ-O-hexadecyl-L-α-phosphatidylcholine hydrate]
oral delivery of sRNA single-chain nucleic acid into the blood, and lung, kidney, spleen, heart, and intestinal tissue of mice: can effectively orally deliver

CCCCCCCCCCC/C=C/[C@@H](O)[C@@H](N)CO [Lipid 100, D-erythro-sphingosine (C16 group)]
oral delivery of sRNA single-chain nucleic acid into the blood, and lung, kidney, spleen, heart, and intestinal tissue of mice: can effectively orally deliver | oral delivery of sRNA single-stranded nucleic acid into the spleen tissue of mice [1]: can significantly efficiently orally deliver

CCCCCCCC/C=C\CCCCCCCCCCCCCC(=O)N[C@@H](CO)[C@H](O)/C=C/CCCCCCCCCCCCC [Lipid 91, N-nervonoyl-D-erythro-sphingosine]
oral delivery of sRNA single-chain nucleic acid into the blood, and lung, kidney, spleen, heart, and intestinal tissue of mice: can effectively orally deliver | oral delivery of sRNA single-stranded nucleic acid into the kidney tissue of mice [1]: can significantly efficiently orally deliver

CCCCCCCC/C=C\CCCCCCCC(=O)O[C@H](COC(=O)CCCCCCCCCCCCCCC)COP(=O)([O-])OCC[N+](C)(C)C [Lipid 118, 1-palmitoyl-2-oleoyl-sn-glycero-3-phosphatidylcholine]
oral delivery of sRNA single-chain nucleic acid into the blood, and lung, kidney, spleen, heart, and intestinal tissue of mice: can effectively orally deliver

CCCCCCCCCCCCCCCC(=O)OC[C@@H](O)COP(=O)([O-])OCC[N+](C)(C)C [Lipid 113, 1-palmitoyl-2-hydroxy-sn-glycerol-3-phosphatidylcholine]
oral delivery of sRNA single-chain nucleic acid into the blood, and lung, kidney, spleen, heart, and intestinal tissue of mice: can effectively orally deliver

CCCCCCCCCCCCC/C=C/[C@@H](O)[C@@H](N)CO [Lipid 98, D-erythro-sphingosine]
oral delivery of sRNA single-chain nucleic acid into the blood, and lung, kidney, spleen, heart, and intestinal tissue of mice: can effectively orally deliver | overall nucleic acid delivery performance among the lipids (across the 6 organs in the experiments): most significant delivery performance | oral delivery of sRNA single-stranded nucleic acid into the kidney tissue of mice [1]: can significantly efficiently orally deliver | oral delivery of sRNA single-stranded nucleic acid into the lung tissue of mice [1]: can significantly efficiently orally deliver | oral delivery of sRNA single-stranded nucleic acid into the spleen tissue of mice [1]: can significantly efficiently orally deliver
